# Experiments:
# Format in all cases: cell-based, human
# [1] = test system: Crohn's disease patient-derived intestinal organoids; experiment: MTT assay (cell viability), Crohn's disease patient-derived organoids
# Procedure: (§1) To evaluate the cell viability of organoids, 100 μL of basal medium containing MTT (3-[4,5-dimethylthiazol-2-yl]-2,5-diphenyltetrazolium bromide) (Sigma-Aldrich) at a concentration of 500 μg/ml was added to each well of a culture plate and incubated for 2 hours at 37° C. To remove the medium and dissolve the Matrigel, 10 μL of 21 SDS (sodium dodecyl sulfate) solution was added thereto, followed by incubation for 2 hours. After adding 100 μL of detergent reagent, the organoids were further incubated for 1 hour, and the absorbance was measured at 562 nm for quantification. Statistical analysis was performed by ANOVA using Bonferroni's multiple comparison test (* p<0.05, ** p<0.01 and *** p<0.001).
# (§2) To evaluate cell viability, MTT assay was performed in the same manner as in Experimental Example 2. Statistical analysis was performed by ANOVA using Bonferroni's multiple comparison test (* p<0.05, ** p<0.01 and *** p<0.001).
# (§3) FIGS. 20 and 21 show the results of analyzing the changes in organoid reconstitution rate and cell viability of TNFα-treated Crohn's disease patient-derived organoids by infliximab and PGE2. Cases in need of actual infliximab treatment or potential PGE2 treatment are Crohn's disease patients, and based on the information obtained from the normal person-derived organoids, the effects of infliximab and PGE2 on Crohn's disease patient-derived organoids with reduced intestinal epithelial regeneration ability were evaluated.
# LGR5 [2] = experiment: qPCR for LGR5 in Crohn's disease patient-derived organoids; conditions: TNFα 0, 30 or 100 ng/mL + high concentration (infliximab 10 μg/mL or PGE2 10 nM)
# Procedure: For the Crohn's disease patient-derived organoids of each experimental group, 0, 30 or 100 ng/mL of human recombinant TNFα, 0, 5 or 10 nM of PGE2, and 0, 1 or 10 μg/mL of infliximab were added to the culture medium daily.
# Total RNA was extracted from intestinal organoids using the RNeasy Mini Kit (QIAGEN). One-step qPCR was performed using the following primers together with One Step PrimeScript™ III RT-qPCR Mix (Takara): LGR5 primers (forward: 5′-[…]-3′, reverse: 5′-[…]-3′). Statistical analysis was performed by ANOVA using Bonferroni's multiple comparison test (* p<0.05 and *** p<0.001).
# [3] = test system: normal person-derived intestinal organoids; experiment: MTT assay (cell viability), normal person-derived organoids
# Procedure: as §1, §2
# LGR5 [4] = experiment: FACS analysis for LGR5 in Crohn's disease patient-derived organoids; conditions: 30 ng/mL TNFα + high concentration (infliximab 10 μg/mL or PGE2 10 nM)
# Procedure: (§4) For the Crohn's disease patient-derived organoids of each experimental group, 30 ng/mL of human recombinant TNFα, or 10 nM of PGE2, and 1 or 10 μg/mL of infliximab were added to the culture medium daily.
# To prepare single-cell suspensions from organoids, organoids were incubated with TrypLE Express in a water bath at 37° C. for 30 minutes. Then, the cells were washed with basal medium and collected by filtration through a 40-μm cell strainer. Flow cytometry for detecting the marker was performed using 1×10^5 cells. Cells were incubated with human Lgr5/GPR49 antibody (R&D Systems) in FACS buffer for 30 min. Unbound antibodies were washed out, and the cells were incubated with Alexa Fluor 488-conjugated anti-mouse immunoglobulin G secondary antibody (Thermo Fisher) for 30 minutes. The cells were then washed, resuspended in FACS buffer, and analyzed on the FACS Aria III instrument (BD Biosciences) to evaluate LGR5+ ISCs population.
# [5] = test system: Crohn's disease patient-derived organoids; experiment: Wound healing assay, two-dimensional Crohn's disease patient-derived organoid monolayers
# Procedure: (§5) For matrix coating, each well of the 24-well plate was coated at 37° C. for 1 hour with 500 μL of Matrigel diluted at a concentration of 51 in the basal medium. For two-dimensional culture, organoids in the three-dimensional culture were digested into single cells using TrypLE Express (Thermo Fisher). The digested cells were resuspended in the basal medium and seeded into Matrigel-coated wells.
# (§6) For wound healing assay, 5×10^4 cells were seeded in wells of a 24-well plate containing inserts of CytoSelect™ 24-Well Wound Healing Assay. The two-dimensional organoid monolayers were cultured in maintenance medium until confluence was reached. The inserts were then carefully removed to produce 0.9-mm-diameter wounds, and 500 μL of fresh differentiation medium was added to each well. Then, the cells in the wound were monitored using a phase-contrast microscope at 0, 4, 8, 16, and 24 hours. At each time point, the area of the non-healed wound was measured in 3 different regions. Statistical analysis was performed by ANOVA using Bonferroni's multiple comparison test (* p<0.05, ** p<0.01 and *** p<0.001).
# In addition, wound healing assay was performed in the same manner as in Experimental Example 7.
# as §4, with “daily. Statistical analysis was performed by ANOVA using Bonferroni's multiple comparison test (** p<0.01 and *** p<0.001).” for “daily.”
# [6] = test system: Crohn's disease patient-derived intestinal organoids; experiment: Organoid reconstitution assay, Crohn's disease patient-derived organoids
# Procedure: (§7) In order to evaluate the organoid-forming ability of intestinal crypts obtained from normal persons and patients with Crohn's disease, 100 intestinal crypts per 25 μL of Matrigel were dispensed into maintenance medium. The culture medium was changed once every two days. The number of viable organoids and enteroids per well was counted under a microscope (CK40, Olympus). The organoid-forming efficiency was calculated as the ratio of available organoids per 100 intestinal crypts. The organoid reconstitution rate was calculated by counting the number of organoids on day 4 and the number of organoids on day 10. Statistical analysis was performed by ANOVA using Bonferroni's multiple comparison test (* p<0.05, ** p<0.01 and *** p<0.001).
# (§8) Normal person-derived organoids were cultured in a maintenance medium for 2 days to obtain a stable number of organoids, and then the medium was replaced with a differentiation medium every 2 days. For each experimental group, human recombinant TNFα and PGE2 (Cayman Chemical Company) or infliximab were added to the culture medium every day. The organoid reconstitution rate was calculated by comparing the number of organoids on day 4 and the number of organoids on day 10.
# as §3
# [7] = test system: normal person-derived intestinal organoids; experiment: Organoid reconstitution assay, normal person-derived organoids
# Procedure: as §7, §8
# [8] = test system: normal person-derived organoids; experiment: Wound healing assay, two-dimensional normal person-derived organoid monolayers; conditions: TNFα-treated; 0-24 hours
# Procedure: as §5, §6
# LGR5 [9] = experiment: Immunohistochemistry, LGR5+ cells per organoid, Crohn's disease patient-derived organoids; conditions: TNFα-treated; vs normal person-derived organoids
# Procedure: (§9) After removing the culture medium, the organoids were washed with PBS and fixed in cold 4% paraformaldehyde at room temperature for 30 minutes. The fixed organoids were washed with PBS and embedded in HistoGel (Thermo Fisher). HistoGel blocks were used for paraffin embedding and sectioned for histologic examination and IHC. Histologic evaluation was performed using hematoxylin-eosin-stained sections. After heating-induced epitope retrieval with citrate buffer, IHC was performed using the following antibodies: cleaved caspase-3 (Asp175, 1:200 dilution, Cell Signaling), E-cadherin (1:100 dilution, Abcam), and LGR5 (1:400 dilution, Abcam). The number of LGR5+ cells per organoid in each of the TNFα-treated group (n=10) and the TNFα-untreated group (n=10) was counted, and statistical analysis was performed by ANOVA using Bonferroni's multiple comparison test (*** p<0.001).
# [10] = test system: Crohn's disease patient-derived organoids; experiment: EdU assay (cell proliferation), Crohn's disease patient-derived organoids; conditions: 30 ng/mL TNFα; vs normal person-derived organoids
# Procedure: (§10) To evaluate the cell proliferation of organoids, each organoid was incubated for 2 hours in a medium containing 10 μM of EdU (5-ethynyl-2′-deoxyuridine) (Abcam), and then fixed with cold 41 paraformaldehyde (Biosesang). EDU incorporation in DNA was detected using Click-iT™ EdU Alexa Fluor® 488 imaging kit (Thermo Fisher). The number of EDU positive (+) cells in the organoids was counted using a confocal microscope (LSM 800, Carl Zeiss). Statistical analysis was performed by ANOVA using Bonferroni's multiple comparison test (* p<0.05 and *** p<0.001).
# [11] = test system: Crohn's disease patient-derived organoids; experiment: Double immunofluorescence for CC3 and TUNEL, Crohn's disease patient-derived organoids; conditions: 30 ng/mL TNFα; vs normal person-derived organoids
# Procedure: (§11) Cell death by TNFα occurs through apoptosis or necroptosis. CC3 (cleaved caspase-3) is a marker capable of detecting cells in which apoptosis has occurred, and TUNEL staining can detect DNA fragmented due to apoptosis, and thus detect cells in which apoptosis or necroptosis has occurred. Therefore, CC3+ and TUNEL+ cells are cells in which apoptosis has occurred, and CC3− and […] cells are cells in which necroptosis has occurred.
# (§12) CC3 staining was performed using primary rabbit antibodies specific for CC3 and a goat anti-rabbit secondary antibody conjugated to Alexa 594 fluorochrome (red fluorescence). In TUNEL staining, In Situ Cell Death Detection Kit (Merck) was used for the same sections in CC3 staining, and then fluorescein-labeled dUTP (green fluorescence) was used. DAPI was used to stain intracellular DNA. Statistical analysis was performed by ANOVA using Bonferroni's multiple comparison test (*** p<0.001).
# [12] = test system: normal person-derived organoids; experiment: Double immunofluorescence for CC3 and TUNEL, normal person-derived organoids; conditions: 30 ng/mL TNFα vs TNFα-untreated
# Procedure: as §11, §12
# [13] = test system: normal person-derived organoids; experiment: EdU assay (cell proliferation), normal person-derived organoids; conditions: 30 ng/mL TNFα vs TNFα-untreated
# Procedure: as §10
# LGR5 [14] = experiment: Immunohistochemistry, LGR5+ cells per organoid, normal person-derived organoids; conditions: TNFα-treated vs TNFα-untreated
# Procedure: as §9
# [15] = 30 or 100 ng/mL TNFα + high concentration (infliximab 10 μg/mL, PGE2 10 nM)
# [16] = 30 ng/mL TNFα + high concentration (infliximab 10 μg/mL or PGE2 10 nM), after 16 hours
# [17] = TNFα 30 and 100 ng/mL + high concentration (infliximab 10 μg/mL or PGE2 10 nM)
# [18] = 30 ng/mL TNFα vs TNFα-untreated
# [19] = 30 or 100 ng/mL human recombinant TNFα
# [20] = 0, 30 and 100 ng/mL TNFα, dependence on concentration
compound,measurement,setting,value
"CCCCC[C@H](O)/C=C/[C@H]1[C@H](O)CC(=O)[C@@H]1C/C=C\CCCC(=O)O [PGE2, prostaglandin E2]",cell viability (MTT),[1]; [15],levels similar to those of TNFα-untreated normal person-derived organoids
same,LGR5 expression (qPCR),LGR5 [2],increased
same,cell viability (MTT),[3]; 100 ng/mL TNFα + 10 nM PGE2,significantly improved compared to when the organoids were not treated with PGE2
same,"LGR5 expression (FACS, LGR5+ ISCs population)",LGR5 [4],increased
same,unhealed wound area,[5]; [16],"reduced, compared to when the organoids were treated with TNFα alone"
same,organoid reconstitution rate,[6]; [15],levels similar to those of TNFα-untreated normal person-derived organoids
same,organoid reconstitution rate,[7]; 100 ng/mL TNFα + 10 nM PGE2,significantly improved compared to when the organoids were not treated with PGE2
same,organoid reconstitution rate,[7]; [17],the restoration of the organoid reconstitution rates was improved
TNFα,unhealed wound area,[8],the wound area was recovered after 16 hours
same,cell viability (MTT),[1]; [18],decreased in both the jejunum and the ileum
same,apoptosis,[1]; [19],increased in a concentration-dependent manner
same,number of LGR5+ cells per organoid,LGR5 [9],decreased in the Crohn's disease patient-derived organoids compared to the normal person-derived organoids
same,number of EdU+ cells,[10],decreased compared to that of the normal person-derived organoids
same,cell viability (MTT),[3]; [20],also decreased
same,cell viability (MTT),[3]; [18],decreased in both the jejunum and the ileum
same,"number of CC3−, TUNEL+ and CC3+, TUNEL+ cells (cell death)",[11],necroptosis more actively occurred than that in the normal person-derived organoids
same,unhealed wound area,"[5]; TNFα alone, 0-24 hours",no significant decrease in the unhealed wound area even over time
same,organoid reconstitution rate,"[6]; 30 ng/mL TNFα, differentiation medium 10 days, jejunum and ileum",decreased compared to those of the normal person-derived organoids
same,organoid reconstitution rate,[6]; [19],decreased in a concentration-dependent manner
same,"number of CC3−, TUNEL+ and CC3+, TUNEL+ cells (cell death)",[12],increased
same,number of EdU+ cells,[13],TNFα-untreated organoids increased compared to that in TNFα-treated organoids
same,number of LGR5+ cells per organoid,LGR5 [14],increased
same,organoid reconstitution rate,[7]; [20],decreased
same,organoid reconstitution rate,"[7]; 30 ng/mL TNFα vs not treated, differentiation medium 10 days, jejunum and ileum",decreased
infliximab,cell viability (MTT),[1]; [15],levels similar to those of TNFα-untreated normal person-derived organoids
same,LGR5 expression (qPCR),LGR5 [2],no difference in LGR5 expression depending on the concentration of TNFα
same,"LGR5 expression (FACS, LGR5+ ISCs population)",LGR5 [4],no difference in LGR5 expression from when the organoids were treated with TNFα
same,unhealed wound area,[5]; [16],"reduced, compared to when the organoids were treated with TNFα alone"
same,organoid reconstitution rate,[6]; [15],levels similar to those of TNFα-untreated normal person-derived organoids
same,organoid reconstitution rate,[6]; TNFα + low concentration infliximab (1 μg/mL) alone,did not completely restore
same,organoid reconstitution rate,[7]; [17],the restoration of the organoid reconstitution rates was improved
